Source: US6121253A, “Prostaglandin conjugates for treating or preventing bone disease” (Merck Frosst Canada & Co., priority 1999, dated 2000)
Where two headings read alike, the source gives them in different places.

Columns and labels:
[1] = Uptake/binding of dual-labelled conjugate to human bone powder in fetal bovine serum
Protocol: Dual-labelled conjugate 14 ([^3 H]-PGE2 /[^14 C]-alendronate) (21.64 μCi of ^14 C and 19.05 μCi of ^3 H) is placed in 1 ml 100% fetal bovine serum to yield a final concentration of 3.5 μM. […] of this solution is incubated with 10 mg bone powder for 1, 2, 3 and 5 mins with vigorous shaking. The mixture is centrifuged (20 sec), 125 μl aliquot is taken from each sample and counted in 10 ml Atomlight in an LKB liquid scintillation counter, 125 μl of the radioactive sample is also counted at 0 time. The uptake of radioactivity into the bone powder is calculated by subtracting the dpms in the medium counted at the times indicated above from dpms at 0 time and this number is divided by the dpms at 0 time.

[2] = Dissociation/release of label from human bone powder in fetal bovine serum at 37 C; format: in vitro ADME
Protocol: Dissociation of [^3 H]-PGE2 /[^14 C]-alendronate from human bone powder in fetal bovine serum at 37 C is measured by incubating 10 mg of human one powder with 1 μl [^3 H]-PGE2 /[^14 C]-ABP in 1 ml FBS for 5 mins. The mixture is centrifuged (20 sec), 100 μl aliquot is taken and counted in Atomlight in an LKB liquid scintillation counter. The rest of the 900 μl solution is withdrawn, the bone powder is washed once with 1 ml phosphate buffered saline, 1 ml fresh fetal bovine serum is added and incubated with the bone powder for 15, 24, 39, 48, 59, 79 and 103 hours in a shaking bath at 37° C. 100 μl aliquots are withdrawn at these times and counted in 10 ml Atomlight in an LKB liquid scintillation counter. The release of radioactivity from the human bone powder into the medium is calculated as follows: dpms from 100 μl of the [^3 H]-PGE2 /[^14 C]-ABP at 5 mins are subtracted from dpms at 0 time. The resulting dpms reflect radioactivity taken up by bone powder. The dpms obtained by counting 100 μl aliquots at each time point are then divided by the dpms taken up by bone. 13% of the ^3 H-moiety is released into the medium at 15 hrs and by 103 hours 32.9% of the radioactivity is released into the medium.

[3] = In vivo uptake and release in rat tibiae and femora; set-up: species or system rat (Sprague-Dawley female); details: single i.v. dose
Protocol: The animals used in this experiment were sacrificed at 24 hours, 14 and 28 days after the compounds claimed in the instant invention were administered. The radioactivity of the ^14 C and ^3 H was measured after incineration of the long bones to determine the percentage of compound retained in the bone. […] High LP levels are normally associated with the breakdown of bone collagen.
Both compounds are administered i.v. via the tail vein to Sprague-Dawley female rats as a radiolabelled compound, equivalent to about 0.3 μCi/animal, [^3 H]-alendronate is administered to nine rats and [^3 H]-PGE2 /[^14 C]-ABP (dual labelled conjugate 14), is administered to seven rats. After 1, 14 or 28 days, animals are sacrificed by CO2 inhalation and the tibiae and femora are dissected, weighed and then stored at -20° C. The amount of radioactivity incorporated into the bone is determined by incineration in a Packard combuster after first air drying the bone for three days at ambient temperature. The percent of the compound retained in the skeleton at each time point is calculated on the basis of the radioactivity, converted to nmoles/gm bone on the assumption that the skeleton represents 8% of the body weight. The skeletal retention is expressed as percent administered dose.

[4] = Characterization of 3H liberated on hydrolysis of conjugate in rat plasma; format: in vitro ADME; details: conjugate 20, 24 hr, fresh rat plasma, of the initial counts
Protocol: A stock solution of 0.4 μCi conjugate 20 or [^3 H]-PGE2 (0.4 μCi) is incubated in either fresh rat plasma, boiled plasma or PBS (ml) at 37 C. After 4 h or 24 h, 100 μl aliquots are removed, diluted with acetonitrile (100 μl), vortexed and centrifuged. 100 μl of supernatant is separated by HPLC (C-18, 0.5% HOAc in water, 66%: acetonitrile 33%, 1 ml/min) with effluent monitored by an on-line scintillation detector and UV detector. No radioactivity is eluted under these conditions when 0.2 μCi, conjugate 20 (62 μg) is applied. (It is necessary to mix 0.4 mg of unlabelled 20 with 0.1 μCi labelled 20 to recover 0.05 μCi from the HPLC.) Radioactive peaks are identified by coelution with authentic [^3 H]-PGE2 and cold PGA2. An authentic sample of PGB2 is prepared by incubating PGE2 (2.4 mg) with 1 ml rat plasma at 37° C. for 24 hr. The sample, purified by HPLC, will have appropriate ^1 H-NMR, UV and MS. To identify radioactive peaks eluting at the solvent front with incubation of conjugate 20 for 24 hr in fresh rat plasma, the fraction is collected and distilled. The collected distillate has 60% of the initial counts.

[5] = 1, 3 and 6 mg/Kg/day PGE2, rapidly growing rats; cited from earlier work
[6] = cited from earlier work
[7] = cited from earlier work; remark: listed apart in the source
[8] = long term s.c.; adrenal glands, liver, kidneys, and lungs; cited from earlier work
[9] = oral dosing; cited from earlier work
[10] = s.c. over 60, 120, and 180 days

CCCCC[C@@H](/C=C/[C@H]1[C@H](O)CC(=O)[C@@H]1C/C=C\CCCC(=O)O)OC(=O)CSCCCC(P(=O)(O)O)P(=O)(O)O [Conjugate 14, PGE2 bisphosphonate conjugate]
time of uptake to human bone powder ([1]; in vitro): within one minute
uptake of 3H-moiety by human bone powder ([1]; within 1 min): ~53%
uptake of 14C-moiety by human bone powder ([1]; within 1 min): about 76%
uptake of 14C-moiety by human bone powder ([1]; within 1 min, listed as 14 C/^3 H dual labeled compound): About 77%
3H-moiety released into the medium ([2]; 15 hrs, fetal bovine serum, 37° C.): 13%
radioactivity released into the medium (3H-moiety) ([2]; 103 hours, fetal bovine serum, 37° C.): 32.9%
rate of release (disassociation) of PG (3H) moiety from human bone powder ([2]; fetal bovine serum, 37° C., listed as 14 C/^3 H dual labeled compound): approximately 5 %/day
rate of release (disassociation) of PG (3H) moiety from human bone powder ([2]; fetal bovine serum, 37° C., listed as [^3 H]-PGE2 /[^14 C]-alendronate): About 5 %/day
release of the prostaglandin from the bisphosphonate at bone ([2]; radiolabel and radioimmunoassay experiments): confirm release of the prostaglandin from the bisphosphonate at the bone cell site
dpms of 14C-moiety in the medium ([2]; up to 103 hours, fetal bovine serum, 37° C.): not significantly changed
uptake into / delivery to bone in vivo [3]: uptake of the labeled compound shown below into rat tibiae and femora after a single dose was administered intravaneously was demonstrated

CCCCC[C@@H](/C=C/[C@H]1[C@H](O)CC(=O)[C@@H]1C/C=C\CCCC(=O)O)OC(=O)CSCc1cc(CSCC(=O)O[C@H](/C=C/[C@H]2[C@H](O)CC(=O)[C@@H]2C/C=C\CCCC(=O)O)CCCCC)cc(CC(P(=O)(O)O)P(=O)(O)O)c1 [Conjugate 20, Bis-(PGE2)-bisphosphonate conjugate]
counts in collected distillate of radioactive peak eluting at solvent front [4]: 60%

CCCCC[C@H](O)/C=C/[C@H]1[C@H](O)CC(=O)[C@@H]1C/C=C\CCCC(=O)O [PGE2]
hard tissue mass in the secondary spongiosa of the proximal tibial metaphysis [5]: increase in hard tissue mass
number of trabeculae [5]: increase in the number of trabeculae
periosteal and corticoendosteal bone mass ([6]; daily s.c. administration): increases periosteal and corticoendosteal bone mass
bone activity [6, 10]: elevated bone activity
tibial diaphyseal bone mass [6, 10]: increased tibial diaphyseal bone mass
serum phosphate levels ([7]; 1 mg of PGE2): significant decreases
side effects ([7]; s.c., doses of 3 mg/Kg/day or higher, rats): diarrhea and flushing of the extremities along with weight loss
soft tissue weight [8]: soft tissue weight increases in adrenal glands, liver, kidneys, and lungs
side effects [9]: loose stools, diarrhea, vomiting, infected sclerae, and increased serum alkaline phosphatase levels
